Reference: PMC4331650 (Biochimica et Biophysica Acta, 2014)
Substitutions are numbered along the chain they refer to.

Tests used:
N257A CLC-Ka [1] = biological target: T1, N257A CLC-Ka (Homo sapiens, UniProt P51800, N257A); assay type: cell-based; settings: 4 μM NFAext in the presence of 100 μM CPAint; −100 mV and 60 mV
T1 sequence (P51800 1-687 N257A): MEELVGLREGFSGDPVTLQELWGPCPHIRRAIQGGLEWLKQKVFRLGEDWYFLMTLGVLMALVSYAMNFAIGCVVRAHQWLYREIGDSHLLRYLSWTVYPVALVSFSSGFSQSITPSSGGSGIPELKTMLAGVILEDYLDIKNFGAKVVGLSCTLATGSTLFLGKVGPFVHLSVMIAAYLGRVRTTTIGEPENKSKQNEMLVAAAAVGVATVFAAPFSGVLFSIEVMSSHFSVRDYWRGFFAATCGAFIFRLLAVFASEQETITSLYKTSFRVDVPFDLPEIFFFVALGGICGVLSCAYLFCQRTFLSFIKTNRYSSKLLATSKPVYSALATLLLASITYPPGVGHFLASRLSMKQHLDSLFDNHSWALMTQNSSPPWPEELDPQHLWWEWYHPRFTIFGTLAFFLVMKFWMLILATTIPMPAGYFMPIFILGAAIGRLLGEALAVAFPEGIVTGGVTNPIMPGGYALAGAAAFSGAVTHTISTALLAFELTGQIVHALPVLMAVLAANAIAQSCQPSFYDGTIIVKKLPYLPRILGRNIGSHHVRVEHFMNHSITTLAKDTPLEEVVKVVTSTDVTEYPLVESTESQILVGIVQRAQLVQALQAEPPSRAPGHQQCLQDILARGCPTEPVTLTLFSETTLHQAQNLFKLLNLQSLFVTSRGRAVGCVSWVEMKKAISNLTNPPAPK
T1 sequence (Q8WZ55 1-320 Y98A partner): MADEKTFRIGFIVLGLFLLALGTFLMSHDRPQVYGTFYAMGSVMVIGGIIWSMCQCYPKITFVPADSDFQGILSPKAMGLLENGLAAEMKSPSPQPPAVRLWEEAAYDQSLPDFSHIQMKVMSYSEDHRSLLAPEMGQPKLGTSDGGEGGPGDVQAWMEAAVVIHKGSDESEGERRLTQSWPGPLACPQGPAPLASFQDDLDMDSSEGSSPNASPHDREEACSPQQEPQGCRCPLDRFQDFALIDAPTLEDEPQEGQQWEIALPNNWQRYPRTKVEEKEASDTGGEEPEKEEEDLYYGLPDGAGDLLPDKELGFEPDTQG

N257A CLC-Ka [2] = biological target: T1, N257A CLC-Ka; test: NFA effect on N257A CLC-Ka currents, voltage clamp in Xenopus oocytes; assay type: cell-based
F256A CLC-K1 = biological target: T2, F256A CLC-K1 (Rattus norvegicus, UniProt Q06393, F256A); test: NFA effect on F256A CLC-K1 without barttin, voltage clamp in Xenopus oocytes; assay type: cell-based; settings: expressed without barttin
T2 sequence (Q06393 1-687 F256A): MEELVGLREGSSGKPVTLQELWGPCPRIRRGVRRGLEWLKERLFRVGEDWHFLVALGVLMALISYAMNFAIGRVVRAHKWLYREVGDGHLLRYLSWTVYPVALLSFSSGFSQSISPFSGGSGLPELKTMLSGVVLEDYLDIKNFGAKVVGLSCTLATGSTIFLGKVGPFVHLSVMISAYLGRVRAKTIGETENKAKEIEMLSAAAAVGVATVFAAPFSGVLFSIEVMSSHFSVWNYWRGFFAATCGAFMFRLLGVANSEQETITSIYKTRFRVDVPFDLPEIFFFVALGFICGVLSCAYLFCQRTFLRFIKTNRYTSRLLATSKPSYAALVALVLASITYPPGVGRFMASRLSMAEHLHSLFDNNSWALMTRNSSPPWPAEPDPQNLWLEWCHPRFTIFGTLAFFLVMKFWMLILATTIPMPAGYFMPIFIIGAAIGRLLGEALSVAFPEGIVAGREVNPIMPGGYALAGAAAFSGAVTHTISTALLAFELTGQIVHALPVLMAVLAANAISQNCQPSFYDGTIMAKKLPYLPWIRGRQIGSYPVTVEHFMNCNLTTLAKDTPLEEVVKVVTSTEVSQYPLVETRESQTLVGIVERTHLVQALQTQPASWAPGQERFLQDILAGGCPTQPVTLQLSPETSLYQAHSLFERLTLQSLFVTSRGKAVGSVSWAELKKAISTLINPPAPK

rat CLC-K1 = settings: HEK293 cells; all concentrations tested, from 0.3 to 2000 μM; cited from earlier work
CLC-K1 without barttin = biological target: T3, CLC-K1 without barttin (Rattus norvegicus, UniProt Q06393); test: NFA effect on WT CLC-K1 without barttin, voltage clamp in Xenopus oocytes; assay type: cell-based
T3 sequence (Q06393 1-687): T2 sequence (Q06393 1-687 F256A) with A256F

effect of NFA on single channel conductance (N257A CLC-Ka [1]): does not affect the conductance | effect of NFA on currents (N257A CLC-Ka [2]; all [NFA]ext tested, from 1 to 2000 μM): only blocked | inhibition at 5 µM (N257A CLC-Ka [2]; read-out: inhibition of currents): ~90% | effect of NFA on currents (F256A CLC-K1): no potentiation | currents relative to control conditions (CLC-K1 without barttin; 10 μM NFA): about 80% | currents relative to control conditions (CLC-K1 without barttin; 200 μM NFA): ~45%
Compound: O=C(O)c1cccnc1Nc1cccc(C(F)(F)F)c1 [NFA, niflumic acid]
effect of NFA on currents (rat CLC-K1): inhibited
